Experimental data as given in US20250282741A1, “NOVEL BENZOFURANYL HYDROXYPHENYL METHANONE DERIVATIVE COMPOUND OR PHARMACEUTICALLY ACCEPTABLE SALT THEREOF” (INNOVO THERAPEUTICS INC., priority 2021, published 2025).

How the values were obtained:
[1] = tested on: MCP-1 (Monocyte chemoattractant protein-1) secretion; test: Inhibition of MCP-1 secretion in LX-2 cells (ELISA); type: cell-based; conditions: Homo sapiens, TGF-beta 10 ng/ml, 30 to 1 μM test compound, 24 hours, read-out: LX-2 cell EC50 (MCP-1 secretion)
Protocol: LX-2 cells, a hepatic stellate cell line, were cultured in 24-well tissue culture plates for 18 hours, followed by TGF-beta 10 ng/ml treatment, and then incubated with 30 to 1 μM of the test compound for 24 hours. The secreted MCP-1 protein in the cell culture medium was quantified using ELISA reagents (RnD, USA). The EC50 value was calculated from the quantitative value of MCP-1 resulting from the treatment of each test compound using prism software (Graphpad, ver 9.4 USA).

[2] = target: HSP47 (Homo sapiens (Human), UniProt P50454); test: Evaluation of HSP47 activity (inhibition of collagen fibril formation, 340 nm); type: biochemical; conditions: for inhibition at 100 µM: HSP47 inhibition; for EC50: HSP47 9.45 μg/ml, collagen fibril formation, test compound 100 μM to 1 μM
Protocol: Fibrils were formed by adding 180 ul of phosphate-buffered saline (PBS, pH 7.4) solution to 20 ul of collagen dissolved in acidic solution (collagen solution, UK), which was measured at a wavelength of 340 nm. HSP47 (GenScript US) was added at a concentration of 9.45 μg/ml to assess HSP47 activity as the degree to which it inhibits fibril formation. Test compound was added with concentrations of 100 μM to 1 μM and the inhibitory activity of HSP47 was calculated as a percentage or EC50.

[3] = tested on: LX-2 cells; test: Sirius red assay, hepatic stellate cell fibrosis (TGF-beta treated LX-2); type: cell-based; conditions: Homo sapiens; for EC50: LX-2, collagen production, TGF-beta 10 ng/ml, 24 hours; for inhibition at 10 µM: LX-2 cells, collagen production
Protocol: (§1) Liver stellate LX-2 (Elabscience C H), lung epithelial A549 (ATCC US), or skin KEL FIB (ATCC, US) cells were cultured in 24-well tissue culture plates for 18 hours, followed by TGF-beta 10 ng/ml treatment, and then incubated with test compound for 24 hours. Cells were washed with PBS, fixed with Bouin's solution, and washed twice with distilled water. The fixed cells were stained with Sirius red for 2 hours to observe cellular morphological changes, and then washed with 0.01 N HCl solution. Collagen-bound Sirius red was extracted with 0.1 N NaOH solution, which was then quantified at a wavelength of 570 nm. The inhibitory efficacy of each compound on collagen production was shown as a percentage or EC50.

[4] = tested on: A549 cells; test: Sirius red assay, lung epithelial cell fibrosis (TGF-beta treated A549); type: cell-based; conditions: Homo sapiens, collagen production
Protocol: as §1

Chain of HSP47 (P50454 19-418, species assumed): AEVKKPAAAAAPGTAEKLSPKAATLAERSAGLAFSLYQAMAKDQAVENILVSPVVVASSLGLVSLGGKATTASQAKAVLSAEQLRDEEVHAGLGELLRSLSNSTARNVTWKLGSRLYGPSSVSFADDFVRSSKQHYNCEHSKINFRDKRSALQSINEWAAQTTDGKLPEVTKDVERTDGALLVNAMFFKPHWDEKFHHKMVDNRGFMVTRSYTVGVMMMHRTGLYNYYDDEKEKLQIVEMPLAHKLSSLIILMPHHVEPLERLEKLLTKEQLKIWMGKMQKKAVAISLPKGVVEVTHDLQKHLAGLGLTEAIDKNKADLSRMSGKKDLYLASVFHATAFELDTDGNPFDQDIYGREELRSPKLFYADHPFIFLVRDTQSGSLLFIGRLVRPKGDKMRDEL

Structure (SMILES)	EC50 [1]	inhibition at 100 µM [2]	EC50 [3]	EC50 [2]	inhibition at 10 µM [3]	inhibition at 10 µM [4]	inhibition at 30 µM [4]
CCc1oc2cccc(Cl)c2c1C(=O)c1cc(Br)c(O)c(Br)c1 [Example 1, (4-chloro-2-ethylbenzofuran-3-yl)(3,5-dibromo-4-hydroxyphenyl)methanone]	4.61 µM	23.3%	3 µM				
CCc1oc2ccc(C)cc2c1C(=O)c1cc(I)c(O)c(I)c1 [Example 8, (2-ethyl-5-methylbenzofuran-3-yl)(4-hydroxy-3,5-diiodophenyl)methanone]				37.1 µM	67.9%		
CCc1oc2cc(C)ccc2c1C(=O)c1cc(I)c(O)c(I)c1 [Example 10, (2-ethyl-6-methylbenzofuran-3-yl)(4-hydroxy-3,5-diiodophenyl)methanone]		41.8%			128%		
CCc1oc2cc(Br)ccc2c1C(=O)c1cc(I)c(O)c(I)c1 [Example 11, (6-bromo-2-ethylbenzofuran-3-yl)(4-hydroxy-3,5-diiodophenyl)methanone]		69.2%			78.3%		
CCc1oc2c(C)cccc2c1C(=O)c1cc(I)c(O)c(I)c1 [Example 13, (2-ethyl-7-methylbenzofuran-3-yl)(4-hydroxy-3,5-diiodophenyl)methanone]				49.1 µM		65.2%	72.5%
CCc1oc2c(Cl)cccc2c1C(=O)c1cc(I)c(O)c(I)c1 [Example 14, (7-chloro-2-ethyl-3-yl)(4-hydroxy-3,5-diiodophenyl)methanone]					90.6%		
CCc1oc2c(Br)cccc2c1C(=O)c1cc(I)c(O)c(I)c1 [Example 15, (7-bromo-2-ethylbenzofuran-3-yl)(4-hydroxy-3,5-diiodophenyl)methanone]				48.3 µM			96.2%
O=C(c1cc(Br)c(O)c(Br)c1)c1coc2ccccc12 [Example 16, benzofuran-3-yl(3,5-dibromo-4-hydroxyphenyl)methanone]				31.4 µM		64.3%	
Cc1oc2cc(Br)ccc2c1C(=O)c1cc(Br)c(O)c(Br)c1 [Example 17, (6-bromo-2-methylbenzofuran-3-yl)(3,5-dibromo-4-hydroxyphenyl)methanone]	3.73 µM	19.5%	3.7 µM				
Cc1oc2ccc(Br)cc2c1C(=O)c1cc(Br)c(O)c(Br)c1 [Example 18, (5-bromo-2-methylbenzofuran-3-yl)(3,5-dibromo-4-hydroxyphenyl)methanone]	3.01 µM	75.2%	4.67 µM				

Further lines, with some results ahead:

EC50 [1]	inhibition at 100 µM [2]	EC50 [3]	EC50 [2]	Structure (SMILES)	inhibition at 10 µM [3]	inhibition at 10 µM [4]	inhibition at 30 µM [4]
			40.8 µM	CCc1oc2ccc(C)cc2c1C(=O)c1cc(Br)c(O)c(Br)c1 [Example 2, (3,5-dibromo-4-hydroxyphenyl)(2-ethyl-5-methylbenzofuran-3-yl)methanone]	65.1%		
2.21 µM	26.3%	1.37 µM		CCc1ccc2c(C(=O)c3cc(Br)c(O)c(Br)c3)c(CC)oc2c1 [Example 3, (3,5-dibromo-4-hydroxyphenyl)(2,6-diethylbenzofuran-3-yl)methanone]			
8.69 µM		5.55 µM	73 µM	CCc1oc2c(C)cccc2c1C(=O)c1cc(Br)c(O)c(Br)c1 [Example 4, (3,5-dibromo-4-hydroxyphenyl)(2-ethyl-7-methylbenzofuran-3-yl)methanone]			
3.56 µM		4.73 µM	37.8 µM	CCc1oc2c(Cl)cccc2c1C(=O)c1cc(Br)c(O)c(Br)c1 [Example 5, (7-chloro-2-ethylbenzofuran-3-yl)(3,5-dibromo-4-hydroxyphenyl)methanone]			
10.2 µM		17.1 µM	80.8 µM	CCc1oc2c(Br)cccc2c1C(=O)c1cc(Br)c(O)c(Br)c1 [Example 6, (7-bromo-2-ethylbenzofuran-3-yl)(3,5-dibromo-4-hydroxyphenyl)methanone]			
2.85 µM	18.1%	10.9 µM		CCc1oc2c(F)cccc2c1C(=O)c1cc(Br)c(O)c(Br)c1 [Example 7, (3,5-dibromo-4-hydroxyphenyl)(2-ethyl-7-fluorobenzofuran-3-yl)methanone]			
2.1 µM		4.02 µM	49.2 µM	CCc1ccc2oc(CC)c(C(=O)c3cc(Br)c(O)c(Br)c3)c2c1 [Example 20, (3,5-dibromo-4-hydroxyphenyl)(2,5-diethylbenzofuran-3-yl)methanone]			
2.8 µM		3.07 µM	5.52 µM	CCc1oc2c(CC)cccc2c1C(=O)c1cc(Br)c(O)c(Br)c1 [Example 21, (3,5-dibromo-4-hydroxyphenyl)(2,7-diethylbenzofuran-3-yl)methanone]			
		3.39 µM	71 µM	CCc1oc2cccc(C)c2c1C(=O)c1cc(Br)c(O)c(Br)c1 [Example 23, (3,5-dibromo-4-hydroxyphenyl)(2-ethyl-4-methylbenzofuran-3-yl)methanone]			
		3.6 µM	104 µM	CCc1oc2cccc(F)c2c1C(=O)c1cc(Br)c(O)c(Br)c1 [Example 24, (3,5-dibromo-4-hydroxyphenyl)(2-ethyl-4-fluorobenzofuran-3-yl)methanone]			
